# How the values were obtained:
# Assay in all cases: Reaction Biology HotSpot kinase assay
# Assay type in all cases: biochemical
# [1] = target: EPHA3 (Homo sapiens (Human), UniProt P29320); conditions: 500 nM compound; for inhibition at 0.5 µM: read-out: Percentage kinase inhibition EPHA3
# Summary of the method: (§1)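 Buffer 20 mM HEPES pH 7.5 / 10 mM MgCl2 / 1 mM EGTA / 0.02% Brij35 / 0.02 mg/mL BSA / 0.1 mM Na3VO4 / 2 mM DTT / 1% DMSO. Cpd 500 nM, 20 min. [γ-33P]ATP mix at 100 μM, 2 h RT. P81 spotting; % activity remaining vs DMSO.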
# [2] = target: CDK9/cyclin T2 (Homo sapiens (Human), UniProt P50750); conditions: 500 nM compound; for inhibition at 0.5 µM: read-out: Percentage kinase inhibition CDK9/cyclin T2
# Summary of the method: as §1
# [3] = target: ERK1 (Homo sapiens (Human), UniProt P27361); conditions: 500 nM compound; for inhibition at 0.5 µM: read-out: Percentage kinase inhibition ERK1
# Summary of the method: as §1
# [4] = target: IR (Homo sapiens (Human), UniProt P06213); conditions: 500 nM compound; for inhibition at 0.5 µM: read-out: Percentage kinase inhibition IR
# Summary of the method: as §1
# [5] = target: PIM1 (Homo sapiens (Human), UniProt P11309); conditions: 500 nM compound; for inhibition at 0.5 µM: read-out: Percentage kinase inhibition PIM1
# Summary of the method: as §1
# [6] = target: BLK (Homo sapiens (Human), UniProt P51451); conditions: 500 nM compound; for inhibition at 0.5 µM: read-out: Percentage kinase inhibition BLK
# Summary of the method: (§2)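 Each compound was tested at 500 nM, with 33P incorporation from ATP (100 μM final, including [γ-33P]ATP) measured by P81 paper capture after a 2 h room-temperature reaction.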
# [7] = target: FAK/PTK2 (Homo sapiens (Human), UniProt Q05397); conditions: 500 nM compound; for inhibition at 0.5 µM: read-out: Percentage kinase inhibition FAK/PTK2
# Summary of the method: as §1
# [8] = target: PDK1/PDHK1 (Homo sapiens (Human), UniProt Q15118); conditions: 500 nM compound; for inhibition at 0.5 µM: read-out: Percentage kinase inhibition PDK1/PDHK1
# Summary of the method: as §1
# [9] = target: KSR1 (Homo sapiens (Human), UniProt Q8IVT5); conditions: 500 nM compound; for inhibition at 0.5 µM: read-out: Percentage kinase inhibition KSR1
# Summary of the method: as §1
# [10] = tested on: RAF1; conditions: 500 nM compound
# Summary of the method: as §1
# [11] = target: PAK1 (Homo sapiens (Human), UniProt Q13153); conditions: 500 nM compound; for inhibition at 0.5 µM: read-out: Percentage kinase inhibition PAK1
# Summary of the method: as §1
# [12] = target: MUSK (Homo sapiens (Human), UniProt O15146); conditions: 500 nM compound; for inhibition at 0.5 µM: read-out: Percentage kinase inhibition MUSK
# Summary of the method: as §1
# [13] = target: Aurora A (Homo sapiens (Human), UniProt O14965); conditions: 500 nM compound; for inhibition at 0.5 µM: read-out: Percentage kinase inhibition Aurora A
# Summary of the method: as §2
# [14] = target: LYN B (Homo sapiens (Human), UniProt P07948); conditions: 500 nM compound; for inhibition at 0.5 µM: read-out: Percentage kinase inhibition LYN B
# Summary of the method: as §1
# [15] = target: c-Src (Homo sapiens (Human), UniProt P12931); conditions: 500 nM compound; for inhibition at 0.5 µM: read-out: Percentage kinase inhibition c-Src
# Summary of the method: as §1
# [16] = target: JAK2 (Homo sapiens (Human), UniProt O60674); conditions: 500 nM compound; for inhibition at 0.5 µM: read-out: Percentage kinase inhibition JAK2
# Summary of the method: as §1
# [17] = target: IKKa/CHUK (Homo sapiens (Human), UniProt O15111); conditions: 500 nM compound; for inhibition at 0.5 µM: read-out: Percentage kinase inhibition IKKa/CHUK
# Summary of the method: as §1
# [18] = target: TGFBR2 (Homo sapiens (Human), UniProt P37173); conditions: 500 nM compound; for inhibition at 0.5 µM: read-out: Percentage kinase inhibition TGFBR2
# Summary of the method: as §1
# [19] = target: MEKK1 (Homo sapiens (Human), UniProt Q13233); conditions: 500 nM compound; for inhibition at 0.5 µM: read-out: Percentage kinase inhibition MEKK1
# Summary of the method: as §1
# [20] = target: FRK/PTK5 (Homo sapiens (Human), UniProt P42685); conditions: 500 nM compound; for inhibition at 0.5 µM: read-out: Percentage kinase inhibition FRK/PTK5
# Summary of the method: as §1
# [21] = target: RET (Homo sapiens (Human), UniProt P07949); conditions: 500 nM compound; for inhibition at 0.5 µM: read-out: Percentage kinase inhibition RET
# Summary of the method: as §1
# [22] = target: TYK2 (Homo sapiens (Human), UniProt P29597); conditions: 500 nM compound; for inhibition at 0.5 µM: read-out: Percentage kinase inhibition TYK2
# Summary of the method: as §1
# [23] = target: CSK (Homo sapiens (Human), UniProt P41240); conditions: 500 nM compound; for inhibition at 0.5 µM: read-out: Percentage kinase inhibition CSK
# Summary of the method: as §1
# [24] = target: ROCK1 (Homo sapiens (Human), UniProt Q13464); conditions: 500 nM compound; for inhibition at 0.5 µM: read-out: Percentage kinase inhibition ROCK1
# Summary of the method: as §1
# [25] = target: FMS (Homo sapiens (Human), UniProt P07333); conditions: 500 nM compound; for inhibition at 0.5 µM: read-out: Percentage kinase inhibition FMS
# Summary of the method: as §1
# [26] = target: DDR2 (Homo sapiens (Human), UniProt Q16832); conditions: 500 nM compound; for inhibition at 0.5 µM: read-out: Percentage kinase inhibition DDR2
# Summary of the method: as §1
# [27] = target: MKK7 (Homo sapiens (Human), UniProt O14733); conditions: 500 nM compound; for inhibition at 0.5 µM: read-out: Percentage kinase inhibition MKK7
# Summary of the method: as §1
# [28] = target: ZAP70 (Homo sapiens (Human), UniProt P43403); conditions: 500 nM compound; for inhibition at 0.5 µM: read-out: Percentage kinase inhibition ZAP70
# Summary of the method: as §1
# [29] = target: PKD2/PRKD2 (Homo sapiens (Human), UniProt Q9BZL6); conditions: 500 nM compound; for inhibition at 0.5 µM: read-out: Percentage kinase inhibition PKD2/PRKD2
# Summary of the method: as §1
# [30] = target: LYN (Homo sapiens (Human), UniProt P07948); conditions: 500 nM compound; for inhibition at 0.5 µM: read-out: Percentage kinase inhibition LYN
# Summary of the method: as §1
# [31] = target: IRR/INSRR (Homo sapiens (Human), UniProt P14616); conditions: 500 nM compound; for inhibition at 0.5 µM: read-out: Percentage kinase inhibition IRR/INSRR
# Summary of the method: as §1
# IKKa/CHUK, sequence (O15111 whole entry): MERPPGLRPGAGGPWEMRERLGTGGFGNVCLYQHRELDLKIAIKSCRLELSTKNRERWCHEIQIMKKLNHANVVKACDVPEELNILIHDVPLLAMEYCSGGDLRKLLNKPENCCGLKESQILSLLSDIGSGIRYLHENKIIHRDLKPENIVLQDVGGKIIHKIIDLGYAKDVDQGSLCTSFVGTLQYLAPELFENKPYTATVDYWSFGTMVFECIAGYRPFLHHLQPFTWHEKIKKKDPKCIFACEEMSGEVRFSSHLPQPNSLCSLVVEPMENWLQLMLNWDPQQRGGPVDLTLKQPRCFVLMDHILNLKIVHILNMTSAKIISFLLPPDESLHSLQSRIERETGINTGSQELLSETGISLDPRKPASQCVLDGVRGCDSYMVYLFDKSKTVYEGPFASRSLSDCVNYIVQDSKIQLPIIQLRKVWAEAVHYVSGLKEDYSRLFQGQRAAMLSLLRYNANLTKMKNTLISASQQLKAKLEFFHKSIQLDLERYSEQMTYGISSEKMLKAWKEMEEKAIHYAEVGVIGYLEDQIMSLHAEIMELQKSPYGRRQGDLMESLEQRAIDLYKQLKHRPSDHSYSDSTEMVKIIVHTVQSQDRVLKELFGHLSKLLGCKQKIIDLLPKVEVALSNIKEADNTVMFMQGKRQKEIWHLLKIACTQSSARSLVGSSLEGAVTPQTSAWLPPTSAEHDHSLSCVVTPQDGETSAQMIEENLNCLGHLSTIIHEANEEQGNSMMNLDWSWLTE
# FMS, sequence (P07333 20-972): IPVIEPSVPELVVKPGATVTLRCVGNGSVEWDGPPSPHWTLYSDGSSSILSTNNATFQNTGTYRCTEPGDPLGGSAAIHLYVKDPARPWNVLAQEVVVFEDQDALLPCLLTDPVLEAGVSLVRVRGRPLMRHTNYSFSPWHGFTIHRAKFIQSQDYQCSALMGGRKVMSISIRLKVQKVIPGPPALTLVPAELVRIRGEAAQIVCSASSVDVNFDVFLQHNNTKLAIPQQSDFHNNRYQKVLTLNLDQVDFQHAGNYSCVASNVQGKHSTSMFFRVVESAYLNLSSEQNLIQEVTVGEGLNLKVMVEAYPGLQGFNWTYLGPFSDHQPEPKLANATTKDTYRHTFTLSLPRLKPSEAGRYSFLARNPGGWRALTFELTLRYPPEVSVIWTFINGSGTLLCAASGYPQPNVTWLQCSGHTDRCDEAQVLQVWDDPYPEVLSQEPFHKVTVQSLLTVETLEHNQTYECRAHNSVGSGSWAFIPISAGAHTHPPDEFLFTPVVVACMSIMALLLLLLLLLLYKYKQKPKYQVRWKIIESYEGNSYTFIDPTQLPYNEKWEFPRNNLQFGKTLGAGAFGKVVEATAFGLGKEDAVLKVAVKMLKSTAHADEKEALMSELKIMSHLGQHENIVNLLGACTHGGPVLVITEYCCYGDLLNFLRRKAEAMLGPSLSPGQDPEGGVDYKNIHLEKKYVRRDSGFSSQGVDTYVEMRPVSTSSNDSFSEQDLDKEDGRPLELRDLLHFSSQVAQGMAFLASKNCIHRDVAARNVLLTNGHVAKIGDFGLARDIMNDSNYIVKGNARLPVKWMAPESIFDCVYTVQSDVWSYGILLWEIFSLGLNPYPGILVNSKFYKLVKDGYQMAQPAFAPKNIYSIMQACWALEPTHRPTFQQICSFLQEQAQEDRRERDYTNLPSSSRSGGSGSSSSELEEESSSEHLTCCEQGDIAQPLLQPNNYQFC
# ZAP70, sequence (P43403 whole entry): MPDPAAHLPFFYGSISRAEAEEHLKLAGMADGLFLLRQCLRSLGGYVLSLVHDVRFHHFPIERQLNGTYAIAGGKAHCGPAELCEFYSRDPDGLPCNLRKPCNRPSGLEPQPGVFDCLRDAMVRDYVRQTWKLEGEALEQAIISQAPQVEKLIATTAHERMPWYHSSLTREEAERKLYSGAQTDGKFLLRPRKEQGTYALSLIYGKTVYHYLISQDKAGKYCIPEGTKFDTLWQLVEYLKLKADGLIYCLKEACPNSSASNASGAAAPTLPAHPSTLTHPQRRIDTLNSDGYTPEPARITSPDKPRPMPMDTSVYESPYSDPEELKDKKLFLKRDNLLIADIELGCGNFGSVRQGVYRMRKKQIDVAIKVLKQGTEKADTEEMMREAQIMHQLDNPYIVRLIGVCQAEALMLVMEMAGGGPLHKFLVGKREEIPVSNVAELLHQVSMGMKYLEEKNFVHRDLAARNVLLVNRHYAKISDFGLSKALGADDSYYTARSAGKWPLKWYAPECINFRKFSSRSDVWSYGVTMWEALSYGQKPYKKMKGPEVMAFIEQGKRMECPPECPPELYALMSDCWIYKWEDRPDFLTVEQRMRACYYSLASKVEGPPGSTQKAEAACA
# ERK1, sequence (P27361 whole entry): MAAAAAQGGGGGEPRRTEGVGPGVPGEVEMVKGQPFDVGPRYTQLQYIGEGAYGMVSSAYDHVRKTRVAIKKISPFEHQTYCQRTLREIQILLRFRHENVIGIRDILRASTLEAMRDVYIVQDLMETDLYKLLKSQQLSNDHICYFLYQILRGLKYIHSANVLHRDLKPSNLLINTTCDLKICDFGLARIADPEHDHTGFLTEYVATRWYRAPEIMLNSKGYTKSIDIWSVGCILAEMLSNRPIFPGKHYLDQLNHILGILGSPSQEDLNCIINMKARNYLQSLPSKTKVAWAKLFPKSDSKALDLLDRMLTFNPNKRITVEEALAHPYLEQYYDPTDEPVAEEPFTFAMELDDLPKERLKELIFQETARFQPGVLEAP
# ROCK1, sequence (Q13464 whole entry): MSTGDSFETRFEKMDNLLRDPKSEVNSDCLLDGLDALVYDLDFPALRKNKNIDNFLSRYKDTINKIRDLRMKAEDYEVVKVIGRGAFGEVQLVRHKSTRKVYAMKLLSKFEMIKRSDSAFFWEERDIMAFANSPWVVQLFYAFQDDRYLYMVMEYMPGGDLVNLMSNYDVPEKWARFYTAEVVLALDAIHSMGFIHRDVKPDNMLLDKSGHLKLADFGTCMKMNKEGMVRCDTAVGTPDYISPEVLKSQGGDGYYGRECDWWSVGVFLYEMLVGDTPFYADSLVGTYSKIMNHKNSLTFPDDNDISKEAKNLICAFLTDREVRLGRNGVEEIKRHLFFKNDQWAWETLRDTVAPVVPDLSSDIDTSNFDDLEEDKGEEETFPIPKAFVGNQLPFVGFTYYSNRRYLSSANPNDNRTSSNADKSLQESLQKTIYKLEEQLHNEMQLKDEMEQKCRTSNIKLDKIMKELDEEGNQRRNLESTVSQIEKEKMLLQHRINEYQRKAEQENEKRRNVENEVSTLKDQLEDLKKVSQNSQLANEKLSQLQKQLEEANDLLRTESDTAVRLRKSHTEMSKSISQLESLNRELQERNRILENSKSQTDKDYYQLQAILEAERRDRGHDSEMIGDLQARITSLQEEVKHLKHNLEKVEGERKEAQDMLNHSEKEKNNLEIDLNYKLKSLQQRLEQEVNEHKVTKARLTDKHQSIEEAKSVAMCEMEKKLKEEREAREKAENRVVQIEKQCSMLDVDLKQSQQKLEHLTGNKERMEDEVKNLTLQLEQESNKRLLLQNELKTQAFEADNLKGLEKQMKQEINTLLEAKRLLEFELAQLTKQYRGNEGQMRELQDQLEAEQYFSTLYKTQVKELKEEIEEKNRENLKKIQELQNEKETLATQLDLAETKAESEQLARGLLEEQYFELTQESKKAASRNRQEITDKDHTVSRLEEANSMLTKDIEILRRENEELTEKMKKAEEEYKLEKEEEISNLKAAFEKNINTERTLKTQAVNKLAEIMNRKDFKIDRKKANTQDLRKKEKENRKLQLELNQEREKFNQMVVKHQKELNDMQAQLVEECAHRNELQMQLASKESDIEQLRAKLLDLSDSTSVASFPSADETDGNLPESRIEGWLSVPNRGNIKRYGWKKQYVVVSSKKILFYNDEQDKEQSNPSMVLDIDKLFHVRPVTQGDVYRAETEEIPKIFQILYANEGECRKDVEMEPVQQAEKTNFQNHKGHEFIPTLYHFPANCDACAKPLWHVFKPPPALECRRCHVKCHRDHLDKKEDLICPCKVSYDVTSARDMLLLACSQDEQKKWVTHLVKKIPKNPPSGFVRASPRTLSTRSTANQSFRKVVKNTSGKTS
# FAK/PTK2, sequence (Q05397 whole entry): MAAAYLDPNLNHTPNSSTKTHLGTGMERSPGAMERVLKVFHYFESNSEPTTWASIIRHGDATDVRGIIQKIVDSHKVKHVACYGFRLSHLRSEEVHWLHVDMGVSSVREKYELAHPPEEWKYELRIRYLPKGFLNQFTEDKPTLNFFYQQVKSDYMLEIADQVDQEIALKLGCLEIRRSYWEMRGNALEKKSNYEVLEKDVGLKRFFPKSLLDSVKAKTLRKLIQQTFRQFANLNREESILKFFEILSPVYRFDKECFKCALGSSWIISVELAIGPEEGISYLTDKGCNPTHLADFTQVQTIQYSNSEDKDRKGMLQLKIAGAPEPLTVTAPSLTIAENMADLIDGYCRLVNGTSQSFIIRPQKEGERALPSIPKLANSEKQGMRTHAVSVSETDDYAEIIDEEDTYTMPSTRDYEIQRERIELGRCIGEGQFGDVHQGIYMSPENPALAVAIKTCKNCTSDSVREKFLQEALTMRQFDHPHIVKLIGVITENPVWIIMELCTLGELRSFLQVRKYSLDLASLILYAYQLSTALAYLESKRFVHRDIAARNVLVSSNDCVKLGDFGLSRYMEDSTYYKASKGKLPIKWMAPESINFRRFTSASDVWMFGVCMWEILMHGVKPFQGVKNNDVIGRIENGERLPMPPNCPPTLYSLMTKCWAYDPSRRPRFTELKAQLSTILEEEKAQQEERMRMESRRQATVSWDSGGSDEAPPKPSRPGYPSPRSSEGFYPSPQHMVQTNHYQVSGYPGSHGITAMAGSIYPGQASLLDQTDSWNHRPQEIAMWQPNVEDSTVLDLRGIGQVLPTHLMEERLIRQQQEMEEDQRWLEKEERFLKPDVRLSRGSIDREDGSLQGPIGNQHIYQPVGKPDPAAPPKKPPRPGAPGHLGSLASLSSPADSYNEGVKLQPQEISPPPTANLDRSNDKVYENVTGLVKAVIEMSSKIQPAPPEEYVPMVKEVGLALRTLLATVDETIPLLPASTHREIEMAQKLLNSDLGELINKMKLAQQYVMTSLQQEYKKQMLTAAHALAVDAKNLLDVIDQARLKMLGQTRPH
smiles,measurement,setting,value
CN(C)CC(O)CNC(=O)c1ccc(C#Cc2c(N)ncc3ccc(Cl)cc23)cc1 (stereo not shown) [HSM1702],Percentage kinase inhibition EPHA3,[1],0%
same,Percentage kinase inhibition CDK9/cyclin T2,[2],65%
same,Percentage kinase inhibition ERK1,[3],5%
same,Percentage kinase inhibition IR,[4],9%
same,Percentage kinase inhibition PIM1,[5],34%
same,Percentage kinase inhibition BLK,[6],10%
same,Percentage kinase inhibition FAK/PTK2,[7],6%
same,Percentage kinase inhibition PDK1/PDHK1,[8],0%
same,Percentage kinase inhibition KSR1,[9],0%
same,Percentage kinase inhibition RAF1,[10],5%
same,Percentage kinase inhibition PAK1,[11],1%
same,Percentage kinase inhibition MUSK,[12],35%
same,Percentage kinase inhibition Aurora A,[13],19%
same,Percentage kinase inhibition LYN B,[14],0%
same,Percentage kinase inhibition c-Src,[15],9%
same,Percentage kinase inhibition JAK2,[16],0%
same,Percentage kinase inhibition IKKa/CHUK,[17],0%
same,Percentage kinase inhibition TGFBR2,[18],0%
same,Percentage kinase inhibition MEKK1,[19],4%
same,Percentage kinase inhibition FRK/PTK5,[20],0%
same,Percentage kinase inhibition RET,[21],15%
same,Percentage kinase inhibition TYK2,[22],2%
same,Percentage kinase inhibition CSK,[23],1%
same,Percentage kinase inhibition ROCK1,[24],0%
same,Percentage kinase inhibition FMS,[25],35%
same,Percentage kinase inhibition DDR2,[26],0%
same,Percentage kinase inhibition MKK7,[27],0%
same,Percentage kinase inhibition ZAP70,[28],0%
same,Percentage kinase inhibition PKD2/PRKD2,[29],6%
same,Percentage kinase inhibition LYN,[30],6%
same,Percentage kinase inhibition IRR/INSRR,[31],10%
"Cc1ccc(C(=O)Nc2ccc(CN3CCN(C)CC3)c(C(F)(F)F)c2)cc1C#Cc1cnc(N)c2ncccc12 [HSN356, 3-((8-amino-1,7-naphthyridin-5-yl)ethynyl)-4-methyl-N-(4-((4-methylpiperazin-1-yl)methyl)-3-(trifluoromethyl)phenyl)benzamide]",Percentage kinase inhibition RAF1,[10],100%
same,inhibition at 0.5 µM,[21],100%
Cc1ccc(C(=O)Nc2ccc(CN3CCN(C)CC3)c(C(F)(F)F)c2)cc1C#Cc1cc(N)nc2ccccc12 [HSN285],Percentage kinase inhibition RAF1,[10],90%
same,inhibition at 0.5 µM,[15],0%
"Cc1ccc(C(=O)Nc2ccc(CN3CCN(C)CC3)c(C(F)(F)F)c2)cc1C#Cc1cnc(N)c2ccccc12 [HSN334, 3-((1-aminoisoquinolin-4-yl)ethynyl)-4-methyl-N-(4-((4-methylpiperazin-1-yl)methyl)-3-(trifluoromethyl)phenyl)benzamide]",Percentage kinase inhibition RAF1,[10],96%
same,inhibition at 0.5 µM,[21],100%
COc1cc2nc(N)nc(C#Cc3cc(C(=O)Nc4ccc(CN5CCN(C)CC5)c(C(F)(F)F)c4)ccc3C)c2cc1OC [HSN325],inhibition at 0.5 µM,[1],6%
same,inhibition at 0.5 µM,[2],0%
same,inhibition at 0.5 µM,[3],0%
same,inhibition at 0.5 µM,[4],9%
same,inhibition at 0.5 µM,[5],0%
same,inhibition at 0.5 µM,[6],30%
same,inhibition at 0.5 µM,[7],0%
same,inhibition at 0.5 µM,[8],1%
same,inhibition at 0.5 µM,[9],0%
same,inhibition at 0.5 µM,[11],0%
same,inhibition at 0.5 µM,[12],0%
same,inhibition at 0.5 µM,[13],0%
same,inhibition at 0.5 µM,[14],35%
same,inhibition at 0.5 µM,[15],30%
same,inhibition at 0.5 µM,[16],0%
same,inhibition at 0.5 µM,[17],6%
same,inhibition at 0.5 µM,[18],0%
same,inhibition at 0.5 µM,[19],4%
same,inhibition at 0.5 µM,[20],49%
same,inhibition at 0.5 µM,[21],96%
same,inhibition at 0.5 µM,[22],0%
same,inhibition at 0.5 µM,[23],0%
same,inhibition at 0.5 µM,[24],3%
same,inhibition at 0.5 µM,[25],93%
same,inhibition at 0.5 µM,[26],81%
same,inhibition at 0.5 µM,[27],6%
same,inhibition at 0.5 µM,[28],0%
same,inhibition at 0.5 µM,[29],0%
same,inhibition at 0.5 µM,[30],69%
same,inhibition at 0.5 µM,[31],0%
Cc1ccc(C(=O)Nc2ccc(CN3CCN(C)CC3)c(C(F)(F)F)c2)cc1C#Cc1c(N)ncc2ccc(Cl)cc12 [HSN286],inhibition at 0.5 µM,[1],96%
same,inhibition at 0.5 µM,[2],0%
same,inhibition at 0.5 µM,[3],0%
same,inhibition at 0.5 µM,[4],16%
same,inhibition at 0.5 µM,[5],0%
same,inhibition at 0.5 µM,[6],100%
same,inhibition at 0.5 µM,[7],0%
same,inhibition at 0.5 µM,[8],0%
same,inhibition at 0.5 µM,[9],0%
same,Percentage kinase inhibition RAF1,[10],94%
same,inhibition at 0.5 µM,[11],0%
same,inhibition at 0.5 µM,[12],13%
same,inhibition at 0.5 µM,[13],0%
same,inhibition at 0.5 µM,[14],95%
same,inhibition at 0.5 µM,[16],67%
same,inhibition at 0.5 µM,[17],36%
same,inhibition at 0.5 µM,[18],15%
same,inhibition at 0.5 µM,[19],6%
same,inhibition at 0.5 µM,[20],95%
same,inhibition at 0.5 µM,[21],100%
same,inhibition at 0.5 µM,[22],0%
same,inhibition at 0.5 µM,[23],93%
same,inhibition at 0.5 µM,[24],0%
same,inhibition at 0.5 µM,[25],99%
same,inhibition at 0.5 µM,[26],77%
same,inhibition at 0.5 µM,[27],0%
same,inhibition at 0.5 µM,[28],0%
same,inhibition at 0.5 µM,[29],7%
same,inhibition at 0.5 µM,[30],98%
same,inhibition at 0.5 µM,[31],0%

# From US20250084039A1, “4-SUBSTITUTED AMINOISOQUINOLINE DERIVATIVES” (Purdue Research Foundation, priority 2016, published 2025)
